Results taken from US6635479B1, “Hypothalamus-specific polypeptides” (The Scripps Research Institute, priority 1996, dated 2003).
Ends that are not written are not given here.

Legend:
[1] = tested on: synaptically coupled hippocampal dentate granule neurons in culture; assay: voltage clamp recording in cultured hippocampal dentate granule neurons; type: cell-based
[2] = food intake after intracerebroventricular infusion; type: in vivo, rats; details: 5 μg ICV; monitored over 2 hours following administration
Procedure: (§1) Synthetic, amidated hcrt2 peptide at different concentrations was infused intracerebroventricularly in rats and body temperature by was monitored telemetry. Stereotactic ablation studies have previously implicated the dorsal-lateral hypothalamus in feeding behavior, blood pressure, and central regulation of immune function, although precise nuclei have not been correlated with these activities. A threshold-type response was obtained in which, at the highest dose, 10 μg, body temperature dropped from 37.7 to 36.7 degrees Celsius over 30 minutes following administration, then recovered to normal over 2 hours. Food intake was monitored over 2 hours following administration and a 40% reduction in food intake was measured at a dose of 5 μg. […] The presumed target cells of hypocretin may not be very accessible by this unphysiological mode of administration. Local injection or intravenous administration of hypocretin might be more suitable for physiological studies.

[3] = body temperature by telemetry after intracerebroventricular infusion; type: in vivo, rats
Procedure: as §1

[4] = tested on: synaptically-coupled rat hypothalamic neurons; assay: voltage clamp recording of postsynaptic currents in cultured hypothalamic neurons; type: cell-based
Procedure: To test this hypothesis, 10-day cultures of synaptically-coupled rat hypothalamic neurons were prepared and postsynaptic currents were recorded under voltage clamp.
Rat hypothalamus from 18-day embryos was cultured for 10 days in vitro. The mediobasal hypothalamus was removed from embryonic day 18 Sprague Dawley rats. The tissue was enzymatically digested in a mild protease solution (10 U/ml papain and 0.2 mg/ml L-cysteine in Earle's balanced salt solution) for 30 minutes. Next, the tissue was pelleted, and the protease solution was removed. Tissue was then suspended in standard tissue culture medium (glutamate- and […] DMEM supplemented with 10% fetal bovine serum, 100 U/ml penicillin/streptomycin, and 6 gm/l glucose) and then triturated into a single-cell suspension. Cells were washed and pelleted an additional three times. The single-cell suspension was plated onto 22 mm^2 glass coverslips that had been coated with high-molecular-weight (540,000 Da) poly-D-lysine. High-density cultures (200,000/cm^2) were used for all experiments. Hypothalamic neural cultures were maintained in a Napco 3600 incubator (37 degree Celsius and 5% CO2) until they were ready for use. To limit non-neuronal cell proliferation cytosine arabinofuranoside (1 μM) was added to the tissue culture medium 1 day after plating.
Synaptically coupled hypothalamic neurons were recorded in voltage clamp with a whole cell pipette (holding potential=−60 mV). This recording is typical of 9 of 12 cells examined under these conditions. […] Inset boxes show higher resolution of the events indicated by the dotted line. Both boxes (in FIGS. 7A and B) were recorded with an identical delay after hcrt2 administration. A less mature hypothalamic neuron after 4 days of culture was unresponsive to 1 μM hcrt2 (FIG. 7B). Pipette solution contained 128 mM KMeSO4, 27 mM KCl, 0.4 mM EGTA, 1 mM ATP, and 0.5 mM GTP.

[5] = 1 μM applied to bath, 10 days in vitro, holding potential −60 mV
[6] = 1 μM, 10-day cultures, voltage clamp

hcrt2: synthetic peptide corresponding to amidated hcrt2; preprohypocretin residues about 70 to 96 (SEQ ID NO:10; unamidated form SEQ ID NO:9) (PGPPGLQGRLQRLLQANGNHAAGILTM-NH2)
response of hippocampal dentate granule neurons [1]: no response | reduction in food intake [2]: 40% | body temperature after administration ([3]; 10 μg (highest dose) ICV, dropped from 37.7 over 30 minutes): 36.7 degrees Celsius | time to recovery of body temperature to normal ([3]; 10 μg ICV): 2 h | cells showing the typical recording (increased PSC frequency) [4, 5]: 9 of 12 | increase in frequency of postsynaptic events (PSCs) [4, 5]: ≤ 400% | cells showing no response [4, 6]: 25% | neurons tested showing substantial, reversible increase in the frequency of postsynaptic currents [4, 6]: 75% | response of less mature hypothalamic neuron after 4 days of culture ([4]; 1 μM, 4 days of culture (FIG. 7B)): unresponsive | frequency of PSCs after washout of the peptide ([4]; after washout of 1 μM): returned to normal baseline levels | electrical responses in voltage clamp experiments (FIGS. 7A-7B legend) ([4]; application of 1 μg, isolated in vitro rat hypothalamic cells): produced electrical responses in adult but not immature neurons | response of hypothalamic neurons in culture for only 3-5 days ([4]; neurons 3-5 days in culture): little response
